Test results as given in patent publication US7056900B2, “Disaccharide derivatives for treating hyperglycaemia” (Sudzucker Aktiengesellschaft Mannheim Ochsenfurt, priority 1997, dated 2006).
“Also recorded” adds a separate entry of the source. Like-named read-outs stand apart in the source and are kept apart here.

How the values were obtained:
Format in all cases: biochemical, hog
[1] = test system: glucoamylase/maltase (GM); assay: Inhibition of GM-catalyzed hydrolysis of maltose (GM/maltose), coupled HK/G6PDH optical test; conditions: for KM/Ki / inhibitor strength (in words) / Ki: GM/maltose; for Ki: secondary Lineweaver-Burk plots
Experimental: (§1) The maltase activity was studied using the substrate maltose. Sucrase/isomaltase (SI) and glucoamylase/maltase (GM) were isolated by papain digestion from hog small intestine mucosa and enriched by ammoniumsulfate precipitation. […] B) In the methods described hereinafter for determining the enzyme activity of sucrase/isomaltase and glucoamylase/maltase under the influence of the substances tested, the amount of glucose or fructose released was determined as measured parameter. This took place in an enzymatic optical test using hexokinase (HK) and glucose-6-phosphate dehydrogenase (G6PDH) as a coupled detection system (Beutler, H.-O.; in: Methods of Enzymatic Analysis; Bergmeyer, H. U.; Bergmeyer, […] edition; Vol. […] The measurement was made at 37° C. and a pH of 7.0. The table below reports the composition of the assays necessary for the individual tests. In individual tests, the semimicro assay was used, but this was reduced in some cases to a micro assay. […] C) Before the inhibitor strengths were determined, for each enzyme-substrate combination basic kinetics were established in which not only the Michaelis-Menten constant (KM [mmol/l]) but also the maximum velocity (Vmax [μmol/mLmin]) were determined. […] The level of the inhibitor concentrations used depended on the strength of the resulting inhibition. For each of the enzyme-substrate combinations, 3 to 4 sets of kinetics at different inhibitor concentrations were established. The inhibitor constants Ki and Kii were, unless stated otherwise, determined from secondary Lineweaver-Burk plots.

[2] = test system: glucoamylase/maltase (GM); assay: Cleavage on incubation (24 hours) with GM; conditions: 37° C.
Experimental: (§2) Sucrase/isomaltase (SI) and glucoamylase/maltase (GM) were isolated by papain digestion from hog small intestine mucosa and enriched by ammoniumsulfate precipitation. […] D) A study was first made as to what extent the inventive disaccharide derivatives and comparison substances, that is to say sucrose and maltose, were cleaved by SI or by GM during incubation for 24 hours. [table]

sucrase/isomaltase (SI) [3] = biological target: T1, sucrase/isomaltase (SI) (Sus scrofa, UniProt P56729); assay: Cleavage on incubation (24 hours) with SI; conditions: 37° C.
T1 sequence (P56729 with tags, fused parts or gaps): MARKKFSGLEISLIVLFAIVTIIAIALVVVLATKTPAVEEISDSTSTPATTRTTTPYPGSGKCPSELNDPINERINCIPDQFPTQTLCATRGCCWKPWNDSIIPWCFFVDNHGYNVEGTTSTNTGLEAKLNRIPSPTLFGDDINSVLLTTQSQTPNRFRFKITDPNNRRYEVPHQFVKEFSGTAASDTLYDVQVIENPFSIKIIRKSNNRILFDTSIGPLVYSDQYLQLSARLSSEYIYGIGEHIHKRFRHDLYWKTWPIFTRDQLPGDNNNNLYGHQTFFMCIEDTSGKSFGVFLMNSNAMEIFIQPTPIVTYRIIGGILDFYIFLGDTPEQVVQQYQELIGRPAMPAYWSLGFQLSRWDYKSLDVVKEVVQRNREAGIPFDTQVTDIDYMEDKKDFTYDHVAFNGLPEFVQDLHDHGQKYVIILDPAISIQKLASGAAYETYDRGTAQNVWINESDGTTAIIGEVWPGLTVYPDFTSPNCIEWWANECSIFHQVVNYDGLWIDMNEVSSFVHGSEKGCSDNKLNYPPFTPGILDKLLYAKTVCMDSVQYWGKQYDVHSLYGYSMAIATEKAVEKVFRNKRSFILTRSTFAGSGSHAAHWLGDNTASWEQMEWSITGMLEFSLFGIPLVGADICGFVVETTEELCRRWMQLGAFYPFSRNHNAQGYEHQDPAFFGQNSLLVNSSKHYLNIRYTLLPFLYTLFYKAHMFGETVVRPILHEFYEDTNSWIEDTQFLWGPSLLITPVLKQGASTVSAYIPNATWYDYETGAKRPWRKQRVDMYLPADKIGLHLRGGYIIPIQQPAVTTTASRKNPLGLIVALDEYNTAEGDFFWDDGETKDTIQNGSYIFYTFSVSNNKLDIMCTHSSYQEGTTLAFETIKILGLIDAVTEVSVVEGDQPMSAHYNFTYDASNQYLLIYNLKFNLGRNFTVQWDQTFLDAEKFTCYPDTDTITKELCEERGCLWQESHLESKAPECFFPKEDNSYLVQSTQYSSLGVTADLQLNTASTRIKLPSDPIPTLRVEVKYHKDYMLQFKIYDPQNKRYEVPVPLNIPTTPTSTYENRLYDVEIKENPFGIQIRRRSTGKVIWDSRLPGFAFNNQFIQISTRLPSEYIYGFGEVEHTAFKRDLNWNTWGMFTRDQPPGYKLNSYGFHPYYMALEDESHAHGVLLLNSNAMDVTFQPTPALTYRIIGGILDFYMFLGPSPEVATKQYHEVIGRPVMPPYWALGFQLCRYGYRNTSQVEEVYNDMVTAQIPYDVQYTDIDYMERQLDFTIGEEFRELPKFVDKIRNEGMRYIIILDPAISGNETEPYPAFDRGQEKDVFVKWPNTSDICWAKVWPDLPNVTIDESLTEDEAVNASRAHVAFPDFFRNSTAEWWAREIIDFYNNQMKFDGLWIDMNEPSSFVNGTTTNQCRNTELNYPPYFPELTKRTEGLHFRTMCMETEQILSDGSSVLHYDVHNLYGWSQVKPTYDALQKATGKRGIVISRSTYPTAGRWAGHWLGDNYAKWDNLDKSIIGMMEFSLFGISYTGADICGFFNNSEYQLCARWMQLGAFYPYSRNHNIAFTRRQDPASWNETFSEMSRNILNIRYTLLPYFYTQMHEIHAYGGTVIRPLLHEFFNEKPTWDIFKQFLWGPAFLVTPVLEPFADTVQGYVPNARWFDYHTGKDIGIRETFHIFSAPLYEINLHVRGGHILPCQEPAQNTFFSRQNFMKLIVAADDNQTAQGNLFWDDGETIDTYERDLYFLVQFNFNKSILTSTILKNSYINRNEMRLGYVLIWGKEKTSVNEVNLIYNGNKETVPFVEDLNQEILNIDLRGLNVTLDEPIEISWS
Experimental: as §2

sucrase/isomaltase (SI) [4] = biological target: T1, sucrase/isomaltase (SI); assay: Inhibition of SI-catalyzed hydrolysis of isomaltose (SI/isomaltose), coupled HK/G6PDH optical test; design: isolated by papain digestion from hog small intestine mucosa and enriched by ammoniumsulfate precipitation; from tissue; host or cells: hog small intestine mucosa; key to Type (of inhibition): K means competitive inhibition; NK means noncompetitive inhibition; UK means uncompetitive inhibition; conditions: for KM/Ki / Type (of inhibition) / inhibitor strength (in words) / Ki: SI/isomaltose; for Ki: secondary Lineweaver-Burk plots
Description: (§3) A) The activity of the SI enzyme complex was studied using three different substrates, that is to say sucrose, maltose and isomaltose.
The isomaltase activity was studied using the substrate isomaltose.
(§4) Sucrase/isomaltase (SI) and glucoamylase/maltase (GM) were isolated by papain digestion from hog small intestine mucosa and enriched by ammoniumsulfate precipitation. The enzymes were separated into isolated sucrase/isomaltase (SI) and glucoamylase/maltase (GM) via an ion exchanger (DEAE cellulose), and a following fine fractionation using gel filtration on a Superdex 200 column from Pharmacia.
(§5) B) In the methods described hereinafter for determining the enzyme activity of sucrase/isomaltase and glucoamylase/maltase under the influence of the substances tested, the amount of glucose or fructose released was determined as measured parameter. This took place in an enzymatic optical test using hexokinase (HK) and glucose-6-phosphate dehydrogenase (G6PDH) as a coupled detection system (Beutler, H.-O.; in: Methods of Enzymatic Analysis; Bergmeyer, H. U.; Bergmeyer, J.; Graβl, M. (editors); 3rd edition; Vol. VI, 2–10). The measurement was made at 37° C. and a pH of 7.0.
(§6) The table below reports the composition of the assays necessary for the individual tests. In individual tests, the semimicro assay was used, but this was reduced in some cases to a micro assay.
(§7) C) Before the inhibitor strengths were determined, for each enzyme-substrate combination basic kinetics were established in which not only the Michaelis-Menten constant (KM [mmol/l]) but also the maximum velocity (Vmax [μmol/mLmin]) were determined. For the enzyme/substrate combination SI/sucrose, a substrate concentration of from 1.24 to 124 mmol/L was used, for the enzyme/substrate combination SI/maltose a substrate concentration of from 0.62 to 24.8 mmol/L was used, for the enzyme/substrate combination SI/isomaltose a substrate concentration of from 3.6 to 57.6 mmol/L was used and for the enzyme/substrate combination GM/maltose a substrate concentration of from 0.31 to 12.4 mmol/L was used in the assay.
(§8) The level of the inhibitor concentrations used depended on the strength of the resulting inhibition. For each of the enzyme-substrate combinations, 3 to 4 sets of kinetics at different inhibitor concentrations were established. The inhibitor constants Ki and Kii were, unless stated otherwise, determined from secondary Lineweaver-Burk plots.

sucrase/isomaltase (SI) [5] = biological target: T1, sucrase/isomaltase (SI); assay: Inhibition of SI-catalyzed hydrolysis of sucrose (SI/sucrose), coupled HK/G6PDH optical test
Description: as §3, §4, §5, §6, §7, §8

sucrase/isomaltase (SI) [6] = biological target: T1, sucrase/isomaltase (SI); assay: Inhibition of SI-catalyzed hydrolysis of maltose (SI/maltose), coupled HK/G6PDH optical test
Description: as §1, with “A) The activity of the SI enzyme complex was studied using three different substrates, that is to say sucrose, maltose and isomaltose. The maltase” for “The maltase”

[7] = cleavage product detected: glucose
[8] = cleavage product detected: fructose
[9] = SI/sucrose, secondary Lineweaver-Burk plots, read-out: Ki
[10] = SI/sucrose, secondary Lineweaver-Burk plots, read-out: Kii
[11] = SI/maltose, secondary Lineweaver-Burk plots, read-out: Ki
[12] = SI/maltose, secondary Lineweaver-Burk plots, read-out: Kii

| Compound | GM conversion rate [2, 7] [%] | SI conversion rate (sucrase/isomaltase (SI) [3]; [7]) [%] | KM/Ki [1] | inhibitor strength (in words) [1] | Ki ([1]; read-out: Ki) [mM] | Ki ([1]; read-out: Kii) [mM] | KM/Ki (sucrase/isomaltase (SI) [4]) | Type (of inhibition) (sucrase/isomaltase (SI) [4]) | inhibitor strength (in words) (sucrase/isomaltase (SI) [4]) | GM conversion rate [2, 8] [%] | KM/Ki (sucrase/isomaltase (SI) [5]; SI/sucrose) | inhibitor strength (in words) (sucrase/isomaltase (SI) [5]; SI/sucrose) | SI conversion rate (sucrase/isomaltase (SI) [3]; [8]) [%] | KM/Ki (sucrase/isomaltase (SI) [6]; SI/maltose) | inhibitor strength (in words) (sucrase/isomaltase (SI) [6]; SI/maltose) | Ki (sucrase/isomaltase (SI) [5]; [9]) [mM] | Ki (sucrase/isomaltase (SI) [5]; [10]) [mM] | Ki (sucrase/isomaltase (SI) [6]; [11]) [mM] | Ki (sucrase/isomaltase (SI) [6]; [12]) [mM] | further results |
| --- | --- | --- | --- | --- | --- | --- | --- | --- | --- | --- | --- | --- | --- | --- | --- | --- | --- | --- | --- | --- |
| OC[C@H]1O[C@H](O[C@H]2[C@H](O)[C@@H](O)C(O)O[C@@H]2CO)[C@H](O)[C@@H](O)[C@@H]1O (mixture of isomers) [Maltose, reference compound] | 95.7 | 100 | – | – | – | – | – | – | – | – | – | – | – | – | – | – | – | – | – | Km ([1]; GM/maltose basic kinetics, substrate, mean, 37° C., pH 7.0): 4.2 ± 1 mM; Vmax ([1]; GM/maltose basic kinetics, enzyme solution with maltase activity of 5 U/mL): 4.8 ± 0.7 U/mL |
| N[C@H]1[C@H](O)[C@@H](CO)O[C@@]1(CO)O[C@H]1O[C@H](CO)[C@@H](O)[C@H](O)[C@H]1O [3′-aminosucrose] | – | – | 3.1 | to a high percentage even at very low concentrations; also recorded: strong to very strong | 1 | 17 | 8.2 | K | strong to very strong | 0 | 11530 | to a high percentage even at very low concentrations; also recorded: strong to very strong | 0 | 2113 | to a high percentage even at very low concentrations; also recorded: strong to very strong | – | – | – | – | enzymatic activity (sucrase/isomaltase (SI) [5]; SI/sucrose, inhibitor concentration of 1 mmol/L): no longer measurable; Ki (sucrase/isomaltase (SI) [5]; SI/sucrose, with preincubation, Dixon evaluation, read-out: Ki): 0.0065 mM; Ki (sucrase/isomaltase (SI) [5]; SI/sucrose, with preincubation, Henderson evaluation, read-out: Ki): 0.0063 mM; Ki (sucrase/isomaltase (SI) [5]; SI/sucrose, without preincubation, Dixon evaluation, read-out: Ki): 0.0052 mM; Ki (sucrase/isomaltase (SI) [5]; SI/sucrose, without preincubation, Henderson evaluation, read-out: Ki): 0.005 mM; sucrose hydrolysis inhibited (sucrase/isomaltase (SI) [5]; concentration of 5 μmol/mL): about 30%; enzymatic activity (sucrase/isomaltase (SI) [6]; SI/maltose, inhibitor concentration of 1 mmol/L): no longer measurable; Ki (sucrase/isomaltase (SI) [6]; SI/maltose, with preincubation, Dixon evaluation, read-out: Ki): 0.0046 mM; Ki (sucrase/isomaltase (SI) [6]; SI/maltose, with preincubation, Henderson evaluation, read-out: Ki): 0.0046 mM; Ki (sucrase/isomaltase (SI) [6]; SI/maltose, without preincubation, Dixon evaluation, read-out: Ki): 0.0054 mM; Ki (sucrase/isomaltase (SI) [6]; SI/maltose, without preincubation, Henderson evaluation, read-out: Ki): 0.0052 mM; maltose hydrolysis inhibited (sucrase/isomaltase (SI) [6]; concentration of 5 μmol/mL): about 50% |
| O=C(O)C1OC(OCC2OC(O)(CO)C(O)C2O)C(O)C(O)C1O (centres unmarked) [Pal-C6′S, palatinose-C6′-acid] | – | – | 0.22 | inhibitory action | 20 | – | 3.7 | K | strong to very strong | 0.1 | 8.4 | strong to very strong | 0.4 | 0.7 | inhibitory action | 7 | 8 | 16 | 31 | – |
| OC[C@H]1O[C@@](CO)(O[C@H]2O[C@H](CO)[C@@H](O)[C@H](O)[C@H]2O)[C@@H](O)[C@@H]1O [Sucrose, reference compound] | – | 85 | – | – | – | – | – | – | – | – | – | – | 87 | – | – | – | – | – | – | – |
| OC[C@H]1O[C@H](OC[C@H]2OC(O)[C@H](O)[C@@H](O)[C@@H]2O)[C@H](O)[C@@H](O)[C@@H]1O (some centres unmarked) [isomaltose, reference compound] | – | – | – | – | – | – | – | – | – | – | – | – | – | – | – | – | – | – | – | Km (sucrase/isomaltase (SI) [4]; SI/isomaltose basic kinetics, substrate, mean, 37° C., pH 7.0): 73.9 ± 6.8 mM; Vmax (sucrase/isomaltase (SI) [4]; SI/isomaltose basic kinetics, enzyme solution with maltase activity of 5 U/mL): 3.07 ± 0.18 U/mL |
| sucrose-C6-acid [Suc-C6S] | 0 | 2 | – | – | – | 4 | 1 | NK | strong to very strong | – | 6.2 | strong to very strong | – | 0.26 | inhibitory action | 9 | 9 | 43 | 5 | Ki (sucrase/isomaltase (SI) [4]; read-out: Ki): 73 mM; Ki (sucrase/isomaltase (SI) [4]; read-out: Kii): 3 mM |
